Source: ChEMBL document CHEMBL5357062, “Emopamil-Binding Protein Inhibitors for Treating Multiple Sclerosis” (ACS Med Chem Lett, 2024)

molecular target: 3-beta-hydroxysteroid-Delta(8),Delta(7)-isomerase (Homo sapiens, UniProt Q15125); experiment: Inhibition of EBP in HEK293T cells using zymosterol-d5 as substrate preincubated for 30 mins followed by substrate addition and measured after 4 hrs by LC-MS analysis; assay type: cell-based
Sequence (Q15125 whole entry): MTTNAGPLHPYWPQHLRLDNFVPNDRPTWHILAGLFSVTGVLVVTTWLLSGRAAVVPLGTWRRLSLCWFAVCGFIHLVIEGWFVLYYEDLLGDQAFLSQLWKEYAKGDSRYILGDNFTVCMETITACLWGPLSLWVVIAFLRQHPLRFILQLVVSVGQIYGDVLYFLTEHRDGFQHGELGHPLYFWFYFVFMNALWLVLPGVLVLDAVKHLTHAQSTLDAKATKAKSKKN

IC50 [nM] | SMILES
< 100 | Cn1nc(C(F)(F)F)cc1S(=O)(=O)N1CCC2(CCN(C3CCOCC3)C2)CC1
< 100 | Cc1nc(C(F)(F)F)ccc1S(=O)(=O)N1CC2(CN(C(C)C3CCCO3)C2)C1 (stereo unspecified)
< 100 | CC(C)c1cc(S(=O)(=O)N2CC3(CN(C4CCOCC4)C3)C2)n(C)n1
< 100 | Cn1nc(C(F)(F)F)cc1S(=O)(=O)N1CC2(CN(CC3CC4(COC4)C3)C2)C1
< 100 | O=S(=O)(c1ccc(C(F)(F)F)nc1C1CC1)N1CC2(CN(C3CCOCC3)C2)C1
< 100 | O=S(=O)(c1cc(F)cc(F)c1)N1CCOC2(CCN(C3CCOCC3)C2)C1 (stereo unspecified)
